In ChEMBL document CHEMBL5260850, “The exploration of aza-quinolines as hematopoietic prostaglandin D synthase (H-PGDS) inhibitors with low brain exposure” (Bioorg Med Chem, 2020):
≈ marks a conversion by molar mass, not a printed value.

What was measured:
[1] = Dose normalized AUC in mouse at 3 mg/kg, po; type: ADME, organism-based; set-up: unit not given here; conditions: in vivo
Albumin = Albumin (Homo sapiens, UniProt P02768); test: Protein binding in human serum albumin by HPLC analysis; type: ADME, cell-free; conditions: read-out: PB (converted)
Chain of Albumin (P02768 whole entry): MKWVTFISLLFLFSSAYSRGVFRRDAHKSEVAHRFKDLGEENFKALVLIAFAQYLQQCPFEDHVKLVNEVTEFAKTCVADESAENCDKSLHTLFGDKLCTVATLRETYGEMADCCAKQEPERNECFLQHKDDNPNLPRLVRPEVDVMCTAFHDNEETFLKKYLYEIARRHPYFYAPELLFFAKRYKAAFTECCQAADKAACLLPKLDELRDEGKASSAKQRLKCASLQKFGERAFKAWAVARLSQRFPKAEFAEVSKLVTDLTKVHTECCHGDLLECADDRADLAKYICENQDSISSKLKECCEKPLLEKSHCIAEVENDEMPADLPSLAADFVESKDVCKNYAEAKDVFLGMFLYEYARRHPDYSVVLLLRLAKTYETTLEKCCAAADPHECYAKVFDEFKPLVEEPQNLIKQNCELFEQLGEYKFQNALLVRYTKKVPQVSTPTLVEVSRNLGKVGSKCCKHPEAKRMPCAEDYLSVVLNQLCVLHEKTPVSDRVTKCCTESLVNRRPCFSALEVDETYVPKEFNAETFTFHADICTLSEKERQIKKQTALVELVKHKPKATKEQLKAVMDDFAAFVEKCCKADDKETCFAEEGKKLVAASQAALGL

[2] = molecular target: Hematopoietic prostaglandin D synthase (Homo sapiens, UniProt O60760); test: Inhibition of human H-PGDS expressed in Escherichia coli BL21 DE3 cells assessed as reduction in PGD2 production using PGH2 as substrate by RapidFire High Throughput Mass spectrometry
Chain of Hematopoietic prostaglandin D synthase (Homo sapiens, UniProt O60760) (O60760 whole entry): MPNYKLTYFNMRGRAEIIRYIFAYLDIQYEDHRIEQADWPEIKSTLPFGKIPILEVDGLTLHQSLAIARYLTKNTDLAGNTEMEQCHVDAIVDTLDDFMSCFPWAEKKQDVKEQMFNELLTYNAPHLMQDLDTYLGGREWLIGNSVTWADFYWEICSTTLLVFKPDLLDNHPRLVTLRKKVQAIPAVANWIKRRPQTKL

[3] = Solubility of the compound in FaSSIF at pH 6.5 measured after 4 hrs by HPLC-UV analysis; type: ADME
[4] = molecular target: T1, Hematopoietic prostaglandin D synthase (Rattus norvegicus, UniProt O35543); test: Inhibition of H-PGDS in rat RBL cells assessed as reduction in A23187-induced PGD2 production pretreated for 30 mins followed by A23187 addition for 30 mins by RapidFire Mass spectrometry; type: cell-based
T1 sequence (O35543 whole entry): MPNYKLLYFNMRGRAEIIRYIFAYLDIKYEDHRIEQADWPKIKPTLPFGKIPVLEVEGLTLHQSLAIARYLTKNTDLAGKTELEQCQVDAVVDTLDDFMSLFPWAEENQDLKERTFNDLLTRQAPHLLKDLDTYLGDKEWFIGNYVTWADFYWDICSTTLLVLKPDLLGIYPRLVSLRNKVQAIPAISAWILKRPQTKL

[5] = Apparent permeability, Papp of the compound at pH 7.4 incubated for 3 hrs by AMP based liquid chromatography; type: ADME; conditions: not told
[6] = Half life in mouse liver microsomes pretreated for 5 mins followed by incubation with NADP for 30 secs and measured upto 45 mins by LC-MS/MS analysis; type: ADME, Microsome; conditions: time 3030 sec
[7] = Dissociation constant, pKa of the compound by UV spectroscopy or potentiometric analysis; type: physicochemical

| Compound | AUC/dose [1] | fraction unbound (Albumin) | IC50 [2] [nM] | solubility at 4 h [3] [µg/mL] | EC50 [4] [nM] | Papp at 3 h [5] [×10⁻⁶ cm/s] | half-life [6] [h] | pKa [7] | EC50 ([4]; rbl) [nM] |
| --- | --- | --- | --- | --- | --- | --- | --- | --- | --- |
| CC(C)(O)[C@H]1C[C@H](NC(=O)c2cnc3cc(C4CC4)ncc3c2)C1 | 45.3 | 0.24 | 65 | 280 (≈ 860 µM) | 280 | 13 | > 3 | – | – |
| C[C@]1(O)C[C@@H](NC(=O)c2cnc3nc(N4CCC4)ccc3c2)C1 | – | – | 140 | – | 17000 | – | – | – | – |
| C[C@]1(O)C[C@@H](NC(=O)c2cnc3nc(C4CC4)c(Cl)cc3c2)C1 | 152 | 0.13 | 7.1 | 31 (≈ 93.4 µM) | 54 | 22 | > 3 | – | – |
| C[C@H]1CCN1c1nc2ncc(C(=O)N[C@H]3C[C@@](C)(O)C3)cc2cc1Cl | – | – | 5 | – | < 2.5 | – | – | – | – |
| COc1ccc2nc(C(=O)N[C@H]3CC[C@H](C(C)(C)O)CC3)cnc2c1 | – | – | 490 | – | 3200 | – | – | < 2 | – |
| O=C(N[C@H]1CCNC1=O)c1cnc2cc(C3CC3)ncc2c1 | 262 | 0.57 | 110 | 430 (≈ 1450 µM) | 260 | 3 | 2.45 | – | – |
| CC(C)(O)[C@H]1CC[C@H](NC(=O)c2cnc3nc(OCC(F)(F)F)ccc3c2)CC1 | – | – | 350 | – | 1100 | – | – | – | – |
| C[C@]1(O)C[C@@H](NC(=O)c2cnc3nc(C4CC4)ccc3c2)C1 | – | – | 160 | – | 1300 | – | – | – | – |
| C[C@@H]1CCN1c1cc2ncc(C(=O)N[C@H]3CC[C@H](C(C)(C)O)CC3)cc2cn1 | – | – | 160 | – | 450 | – | – | – | – |
| C[C@H]1CCN1c1cc2ncc(C(=O)N[C@H]3CC[C@H](C(C)(C)O)CC3)cc2cn1 | – | – | 4.8 | – | 50 | – | – | – | – |
| C[C@H]1CCN1c1cc2ncc(C(=O)N[C@H]3CCNC3=O)cc2cn1 | 715 | 0.44 | 37 | 630 (≈ 1940 µM) | 260 | 1.4 | > 3 | – | – |
| C[C@H]1CCN1c1nc2ncc(C(=O)N[C@H]3C[C@](C)(O)C3)cc2cc1Cl | – | – | 5 | – | 4.7 | – | – | – | – |
| O=C(N[C@H]1CC[C@H](N2CC(F)(F)C2)CC1)c1cnc2nc(C3CC3)ccc2c1 | – | – | 14 | – | 50 | – | – | – | – |
| CC(C)(O)[C@H]1C[C@H](NC(=O)c2cnc3nc(C4CC4)c(Cl)cc3c2)C1 | 45.2 | 0.12 | 3.9 | 46 (≈ 128 µM) | 11 | 28 | > 3 | – | – |
| COc1nc2ncc(C(=O)N[C@H]3CC[C@H](C(C)(C)O)CC3)cc2cc1Cl | – | – | 6.6 | – | 22 | – | – | – | – |
| CC(C)(O)[C@]12C[C@@](NC(=O)c3cnc4cc(C5CC5)ncc4c3)(C1)C2 | – | – | 38 | – | 210 | – | – | – | – |
| COc1ccc2c(c1)N=CN(C(=O)N[C@H]1CC[C@H](C(C)(C)O)CC1)C2 | – | – | 890 | – | 4300 | – | – | 4.31 | – |
| C[C@H]1CCN1c1nc2ncc(C(=O)N[C@H]3CCNC3=O)cc2cc1Cl | 86.2 | 0.19 | 5.1 | > 1000 | 3.8 | < 0.3 | > 3 | – | – |
| CC(N[C@H]1CC[C@H](NC(=O)c2cnc3nc(C4CC4)ccc3c2)CC1)C(F)F (mixture of isomers) | 681 | 0.18 | 11 | > 1000 | 28 | 17 | > 3 | – | – |
| CC(C)(O)[C@H]1CC[C@H](NC(=O)c2cnc3nc(C4CCC4)ccc3c2)CC1 | – | – | 10 | – | 120 | – | – | – | – |
| O=C(N[C@H]1CCNC1=O)c1cnc2nc(C3CC3)c(Cl)cc2c1 | 252 | 0.19 | 4.6 | 120 (≈ 363 µM) | 14 | 3 | > 3 | – | – |
| CC(C)(O)[C@H]1CC[C@H](NC(=O)c2cnc3nc(NCC(F)(F)F)ccc3c2)CC1 | – | – | 690 | – | 9600 | – | – | – | – |
| O=C(N[C@H]1CCNC1=O)c1cnc2nc(C3CC3)ccc2c1 | – | – | 44 | – | 640 | – | – | – | – |
| CC(C)(O)[C@H]1CC[C@H](NC(=O)c2cnc3nc(NCC(F)F)ccc3c2)CC1 | – | – | 150 | – | 12000 | – | – | – | – |
| CC(C)(O)[C@H]1CC[C@H](NC(=O)c2cnc3nc(N4CCC4)c(Cl)cc3c2)CC1 | – | – | 2.4 | – | 3.9 | – | – | – | – |
| C[C@]1(O)C[C@H](NC(=O)c2cnc3nc(C4CC4)ccc3c2)C1 | – | – | 300 | – | 7400 | – | – | – | – |

| Compound | AUC/dose [1] | fraction unbound (Albumin) | IC50 [2] [nM] | solubility at 4 h [3] [µg/mL] | EC50 [4] [nM] | Papp at 3 h [5] [×10⁻⁶ cm/s] | half-life [6] [h] | pKa [7] | EC50 ([4]; rbl) [nM] |
| --- | --- | --- | --- | --- | --- | --- | --- | --- | --- |
| C[C@]1(O)C[C@@H](NC(=O)c2cnc3cc(C4CC4)ncc3c2)C1 | – | – | 290 | – | 910 | – | – | – | – |
| O=C(N[C@H]1CC[C@H](N[C@H](CO)C(F)(F)F)CC1)c1cnc2cc(C3CC3)ncc2c1 | 693 | – | 31 | 100 (≈ 237 µM) | 310 | 18 | > 3 | – | – |
| O=C(N[C@H]1CCNC1=O)c1cnc2nc(N3CCC3)ccc2c1 | – | – | 71 | – | 6000 | – | – | – | – |
| C[C@@H]1CCN1c1ccc2cc(C(=O)N[C@H]3CC[C@H](C(C)(C)O)CC3)cnc2n1 | – | – | 310 | – | 3000 | – | – | – | – |
| COc1ncc2cc(C(=O)N[C@H]3CC[C@H](C(C)(C)O)CC3)cnc2n1 | – | – | 140 | – | 2000 | – | – | < 2 | – |
| CC(C)(O)[C@H]1CC2(C[C@H](NC(=O)c3cnc4nc(C5CC5)ccc4c3)C2)C1 (some centres not stated) | 477 | 0.14 | 3.9 | 35 (≈ 95.8 µM) | 32 | 4.5 | > 3 | – | – |
| CC(C)(O)[C@H]1CC[C@H](NC(=O)c2cnc3nc(N4CC(F)C4)ccc3c2)CC1 | – | – | 13 | – | 1000 | – | – | – | – |
| COc1ccc2cc(C(=O)N[C@H]3CC[C@H](C(C)(C)O)CC3)ccc2c1 | – | – | 1300 | – | > 50000 | – | – | – | – |
| C[C@H]1CCN1c1nc2ncc(C(=O)N[C@H]3C[C@H](C(C)(C)O)C3)cc2cc1Cl | – | – | 3.1 | – | < 2.5 | – | – | – | – |
| CC(C)(O)[C@H]1CC[C@H](NC(=O)c2cnc3nc(N4CCC4)ncc3c2)CC1 | 23.4 | 0.46 | 12 | 210 (≈ 568 µM) | 340 | < 1 | 2.43 | – | – |
| CC(C)(O)[C@H]1CC[C@H](NC(=O)c2cnc3nc(C4CC4)ncc3c2)CC1 | 204 | 0.36 | 6.4 | – | 170 | 2.2 | > 3 | – | – |
| CC(C)(O)[C@H]1CC[C@H](NC(=O)c2cnc3ccccc3c2)CC1 | – | – | 1800 | – | 30000 | – | – | 3.02 | – |
| CC(C)(O)[C@]12C[C@@](NC(=O)c3cnc4nc(C5CC5)ccc4c3)(C1)C2 | 285 | 0.31 | 17 | 400 (≈ 1190 µM) | 230 | 3.4 | > 3 | – | – |
| CC(C)(O)C1CC2(CC(NC(=O)c3cnc4nc(C5CC5)ccc4c3)C2)C1 (configuration not stated) | 441 | 0.14 | 4.9 | 34 (≈ 93 µM) | – | 5.4 | > 3 | – | 29 |
| CC(C)(O)[C@H]1C[C@H](NC(=O)c2cnc3nc(C4CC4)ccc3c2)C1 | 77.5 | 0.26 | 36 | 100 (≈ 307 µM) | 280 | – | > 3 | – | – |
| C[C@]1(O)C[C@H](NC(=O)c2cnc3nc(C4CC4)c(Cl)cc3c2)C1 | 362 | 0.14 | 6.4 | 700 (≈ 2110 µM) | 190 | 15 | > 3 | – | – |
| CC(C)c1ccc2cc(C(=O)N[C@H]3CC[C@H](C(C)(C)O)CC3)cnc2n1 | – | – | 8.5 | – | 64 | – | – | – | – |
| CC(C)(O)[C@H]1CC[C@H](NC(=O)c2cnc3cnccc3c2)CC1 | – | – | 7700 | – | 39000 | – | – | 2.74 | – |
| COc1cnc2cc(C(=O)N[C@H]3CC[C@H](C(C)(C)O)CC3)cnc2c1 | – | – | 180 | – | 740 | – | – | < 2 | – |
| COc1ccc2cc(C(=O)N[C@H]3CC[C@H](C(C)(C)O)CC3)nnc2c1 | – | – | 7900 | – | > 50000 | – | – | < 2 | – |
| O=C(N[C@H]1CC[C@H](N2CC(F)(F)C2)CC1)c1cnc2cc(C3CC3)ncc2c1 | – | – | 14 | – | 88 | – | – | – | – |
| O=C(N[C@H]1CC[C@H](N2CC(F)C2)CC1)c1cnc2cc(C3CC3)ncc2c1 | 358 | – | 35 | > 1000 | 280 | 27 | > 3 | – | – |
| COc1ccc2cc(C(=O)N[C@H]3CC[C@H](C(C)(C)O)CC3)cnc2c1 | – | – | – | – | 100 | – | – | 3.59 | – |
| CC(C)(O)[C@H]1CC[C@H](NC(=O)c2cnc3nc(C4CC4)c(Cl)cc3c2)CC1 | – | – | 4.7 | – | 5.2 | – | – | – | – |
| C[C@H]1CCN1c1nc2ncc(C(=O)N[C@H]3CC[C@H](C(C)(C)O)CC3)cc2cc1Cl | – | – | 3.8 | – | 3.9 | – | – | – | – |
| C[C@H]1CCN1c1nc2ncc(C(=O)N[C@H]3CC[C@](C)(O)CC3)cc2cc1Cl | 132 | 0.13 | 4.6 | 740 (≈ 1900 µM) | 3.7 | 11 | > 3 | – | – |
